In patent publication US20090312373A1, “METHODS FOR THE TREATMENT OF CANCER USING PIPERLONGUMINE AND PIPERLONGUMINE ANALOGS” (The General Hospital Corporation, priority 2008, published 2009):

Experiments:
p53 [1] = test: Western blot of p53 and p53 target expression in human cancer cells; type: cell-based
Description: Thus, piperlongumine is a p53 activator as well as an activator for proapoptotic targets.

p53 [2] = test: p53 acetylation Western blot in U2OS cells; type: cell-based, human; settings: 6 hours
Method: U2OS cells were treated with piperlongumine (SP), the HDAC inhibitor TSA (trichostatin A ([…])) or the control DMSO for 6 hours. Cell extracts were fractionated in SDS-PAGE gel and analyzed by western blot.

[3] = test system: EJ bladder carcinoma cells and HCT116 colon carcinoma cells; test: Cell death in transformed cancer cells; type: cell-based, human; settings: 2.5 μM and 10 μM
[4] = test system: diploid fibroblasts, keratinocytes and breast epithelial cells; test: Cell death in non-transformed control cells; type: cell-based
Twist = Twist expression in U2OS and EJ cells; type: cell-based, human; settings: 10 μM, 6 and 12 hours
Method: U2OS cells and EJ cells were exposed to piperlongumine (10 μM) and aliquots of the cells were taken at 6 and 12 hours and lysed to determine the level of Twist expression. […] HCT116 cells (p53-wt cells) were exposed to piperlongumine and aliquots of the cells were taken at 6 and 12 hours and lysed to determine the level of CDIP expression. […] U2OS cells (p53-wt cells) and EJ cells (non-functional p53) were exposed to various concentrations of piperlongumine (piper) and aliquots of the cells were lysed to determine the level of survival protein expression.

[5] = test system: patient-derived breast cancer tumor samples; test: Histoculture Drug Response Assay (HDRA), breast; type: cell-based, human
Description: (§1) Piperlongumine (SP2007) was compared to a variety of known anti-cancer agents in a Histoculture Drug Response Assay (HDRA). HDRA is an assay that provides a reliable approach to determine the profile of in vivo chemo-sensitivity in cancer patients. The assay allows for a three-dimensional culture, the testing of patient tumor sensitivity, the evaluation of treatment option for individual patients with solid tumor types and a high correlation to clinical drug sensitivity (Flowers J L et al., Cancer Chemother. Pharmacol. 2003 September 52 (3): 253-261). The assays were performed by Anti-cancer Inc., (San Diego, Calif.). An average of twenty samples was tested for each tumor type.

[6] = test system: patient-derived colon cancer tumor samples; test: Histoculture Drug Response Assay (HDRA), colon; type: cell-based, human
Description: as §1

[7] = test system: EJ Human Bladder Carcinoma Cells; test: Angiogenesis in EJ bladder carcinoma tumor bearing nude mice; type: in vivo, mouse; settings: 1.5 mg/kg i.p. every two days for 2.5 weeks
Method: EJ Human Bladder Carcinoma Cells (10^6 Cells) were Subcutaneously Transplanted into the back of the skin of immunodeficient nude mice (total 16 mice). After 2 weeks (tumor sizes of approximately 8-10 mm), piperlongumine (SP2007; 1.5 mg/kg) or vehicle (10% DMSO) was injected into tumor bearing mice by i.p. every two days for 2.5 weeks. The effect of piperlongumine was evaluated by opening the tumor site.

[8] = test system: p120ctn/vimentin/N-cadherin complex; test: Vimentin immunoprecipitation / p120ctn Western blot in EJ cells; type: cell-based, human; settings: 10 μM
Method: It is well-established that Twist plays a major role in tumor development and metastasis. Thus, we investigated whether piperlongumine (SP2007) mechanistically regulates a key signaling pathway involving a complex of p120ctn/vimentin/N-cadherin which is a Twist target that promotes tumor cell migration and invasion/metastasis. EJ cells were treated with 10 μM piperlongumine or vehicle for 20 hours and cell lysates were subsequently immunoprecipitated by Vimentin antibody (Sigma Aldrich, St. Louis, Mo.) followed by western blot against p120ctn to analyze the association of the p120ctn/vimentin/N-cadherin complex.
EJ cells were treated with piperlongumine (SP2007) (10 μM) for 12 hours. Subsequently the cells were harvested and subjected to immunoprecipitations using vimentin antibodies (Sigma Aldrich) to precipitate the vimentin complex. Western blots were performed for p120 CTN and vimentin. DMSO (D) treated cells were used as control IP experiments.

CDIP = test: Western blot of CDIP expression in U2OS cells containing wt-p53; type: cell-based, human; settings: 5 μM and 10 μM
Method: Western blot analyses of CDIP expression in human cancer cells containing wt-p53 treated with piperlongumine (SP2007) (5 μM and 10 μM) is shown in FIG. 38. Beta-actin expression was used as a loading control.

[9] = test system: EJ bladder carcinoma and U2OS osteosarcoma cell lines; test: DNA damage in EJ bladder carcinoma and U2OS osteosarcoma cell lines; type: cell-based, human
Description: The conditions and time of exposure are indicated in the legend of the figure.

miRNA-10b = test: miRNA microarray analysis in U2OS and EJ cells; type: cell-based, human; design: dose or concentration left out as unconfirmed; settings: 0, 6 and 24 hrs
Method: U2OS cells and EJ cells were treated with piperlongumine ([…]) and total RNA was extracted after 0, 6 and 24 hrs using miRNeasy Mini Kit (Qiagen, Germantown, Md.) according to the manufacturer's instructions. The miRNA microarray analysis was done by LC Sciences (Houston, Tex.). Total RNA (10 μg) was size fractionated (<200 nucleotides) by using a mirVana kit (Ambion, Austin, Tex.) and labeled with Cy3 or Cy5 fluorescent dyes. Dye switching was done to eliminate the dye bias. Pairs of labeled samples were hybridized to dual-channel microarrays. Microarray assays were done on a μParaFlo microfluidics chip with each of the detection probes containing a nucleotide sequence of coding segment complementary to a specific miRNA sequence and a long non-nucleotide molecule spacer that extended the detection probe away from the substrate. miRNA detection signal threshold was defined as twice the maximum background signal. The maximum signal level of background probes was 180. Normalization was done using a cyclic LOWESS (locally weighted regression) method to remove the system-related variations. Data adjustments included data filtering, log2 transformation, and gene centering and normalization (Analysis performed at LCScience). The t-test analysis was conducted between treated and non-treated and U2OS and EJ samples, and miRNA with P values<0.05 were selected for cluster analysis. […]

Toxicity limit in mice = type: in vivo, mouse
Method: To avoid toxicity, piperlongumine should be used at less than 2.5 mg/kg in mice. The skilled person will know how to formulate the compounds of the invention in accordance with the solubility by selection of appropriate carriers, solubilizers, etc.

SMILES: COc1cc(/C=C/C(=O)N2CCC=CC2=O)cc(OC)c1OC [piperlongumine, N-(3,4,5,-trimethoxycinnamoyl)-Δ^3-piperidine-2-one]
- Puma expression (p53 [1]; human cancer cells): significantly induced
- p53 expression (Western blot) (p53 [1]; relatively low concentrations, U2OS and HCT116 human cancer cells): significantly induced
- amount of acetylated p53 (p53 [2]): increased the amount of acetylated p53 to a level similar to TSA treated cells
- total amount of p53 (p53 [2]; TSA 10 mM): did result in an increased
- cell death in transformed cancer cells [3]: induced cell death
- cell death/apoptosis in normal cells [4]: not in normal cells
- Twist expression (Twist): inhibits the expression of Twist
- growth of patient-derived tumor samples [5]: inhibits growth
- growth of patient-derived tumor samples [6]: inhibits growth
- blood-vessel formation at the tumor sites [7]: did not show considerable blood-vessel formation
- expression of angiogenic marker VEGF (immunohistochemistry) ([7]; compared to vehicle): significantly reduced
- p120 in the complex precipitated with vimentin ([8]; 12 hours): p120 was not in the complex
- association of the p120ctn/vimentin/N-cadherin complex ([8]; 20 hours): dissociation
- CDIP expression (CDIP): induces CDIP
- DNA damage (phosphorylated gamma-H2AX levels) [9]: results in the induction of DNA damage
- miRNA-10b (miRNA-10b): changes the induction of miRNA-10b
- dose to avoid toxicity (Toxicity limit in mice): less than 2.5 mg/kg
